How the values were obtained:
[1] = biological target: T1, recombinant human NC (rhNC) (Homo sapiens, UniProt Q9NR71); assay: Neutral ceramidase assay, fluorogenic substrate RBM14-C24:1; assay type: biochemical; conditions: single-point concentration of 50 μM; means of three replicates
T1 construct: purchased R&D Systems
Method: As mentioned above, hydrolysis of ceramides occurs by the action of ceramidases which are encoded by five known genes and are distinguished by the pH required for optimal activity. A common problem with AC inhibitors, especially those one with a scaffold related to the structure of ceramide, is the lack of selectivity over other ceramidases. Thus, to discard a selectivity issue, the activity of nine detected hits against neutral ceramidase was next explored at 50 µM. Activity over NC was tested using recombinant human NC (rhNC) and a specific NC substrate bearing a nervonic acid amide (RBM14-C24:1)[30]. Remarkably, none of the molecules elicited a significant inhibitory activity, thereby confirming the selective inhibition of AC over NC (Supplemental Table 1).
The NC assay was performed in 96-well plates at a final volume of 100 µL/well. Reaction buffers was 25 mM phosphate buffer 150 mM NaCl 1% (NaChol) pH 7.4. The reaction mixtures contained 25 µL/well of protein (5 ng recombinant NC R&D Systems, >95% pure), 70 µL/well of substrate (prepared from 4 mM stock solutions in ethanol) and 5 µL/well of inhibitor (prepared from 1 mM stock solutions in DMSO/H2O). Reaction mixtures were incubated at 37 °C for 1 h and reactions were stopped with 25 µL/well of MeOH followed by 100 µL/well of NaIO4 (2.5 mg/mL in 100 mM glycine-NaOH buffer, pH 10.6). After incubation at 37 °C for 1 h in the dark, 100 µL/well of 100 mM glycine-NaOH buffer (pH 10.6) was added and fluorescence was measured spectrophotometrically at excitation and emission wavelenght of 355 and 460 nm, respectively. The same reaction mixtures without enzymes were used as blanks.

acid ceramidase (AC) = biological target: T2, acid ceramidase (AC) (Homo sapiens, UniProt Q13510); assay: Acid ceramidase HTS assay, 384-well fluorogenic (RBM14-C12), cell lysates; assay type: biochemical; conditions: for IC50: dose-titration, 8-point two-fold dilution from 200 micromolar, 95% confidence interval in brackets, means of three replicates; for inhibition at 20 µM: primary assay, single-point concentration of 20 μM, lysates of AC-overexpressing A375 melanoma cells, substrate RBM14-C12 20 µM, pH 4.5
T2 construct: expressed in transfected cells
T2 sequence (Q13510 22-395): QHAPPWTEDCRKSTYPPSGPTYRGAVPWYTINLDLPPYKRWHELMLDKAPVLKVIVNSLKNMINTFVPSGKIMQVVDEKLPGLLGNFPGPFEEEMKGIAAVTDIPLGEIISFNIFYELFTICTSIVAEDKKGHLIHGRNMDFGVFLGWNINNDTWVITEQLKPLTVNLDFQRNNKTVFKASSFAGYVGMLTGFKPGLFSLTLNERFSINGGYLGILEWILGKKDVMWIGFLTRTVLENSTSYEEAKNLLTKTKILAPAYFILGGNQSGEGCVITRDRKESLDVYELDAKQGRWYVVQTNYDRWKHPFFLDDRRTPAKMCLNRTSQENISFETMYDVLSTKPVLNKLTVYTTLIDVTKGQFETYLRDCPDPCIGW
Method: To start with, the final reaction volume was adapted from 100 µL (96-well-format) to 32 µL (384 well-format) with a final concentration of substrate of 20 µM. Next, protein concentration was adjusted using cell lysates of AC-overexpressing A375 melanoma cells. Ideally, the optimal amount of protein is the one that ensures reaction linearity over a period of time together with less than 10% of substrate depletion, in order to assume that the enzyme operates at steady-state conditions. Thus, different amounts of cell lysates were mixed with the substrate and product formation was measured over 1 h. […] Finally, an amount of 0.4 µg of protein was chosen, as higher amounts of proteins were not in the linear portion whereas lower amounts would compromise the signal window. The optimal incubation time of the reaction mixture was next explored. […] As a first validation step, we performed a control run consisting of 60 wells representing AC activity and 60 wells representing the signal in absence of the enzyme. […] The calculated coefficients of variation (CV) for both the high and low controls were 6.08% and 17.1% respectively.
After having successfully established the optimal reaction conditions in a 384-well format, we employed this newly miniaturised AC assay in a pilot screen against a library of 4100 compounds. The screen was carried out at a single dose of 20 µM for each library compound in 6% DMSO (v/v) and in duplicate. The acid ceramidase inhibitor SOCLAC was used as a pharmacological control for the assay. The Z’-factor per plate were consistent with those obtained during the initial validation. […] An example hit map from one screening plate is shown (Figure 2(C)). The inhibitory activity of these hits was then validated in an additional assay performed at a single-point concentration in triplicates.
To confirm the results from the primary screening, top hits were cherry-picked and tested in a concentration-dependent response assay with triplicates per sample. Thus, 101 compounds were then subjected to 8-points two-fold dilution series starting at a maximum concentration of 200 micromolar.
(§1) The A375 cell line stably overexpressing ASAH1 under the control of a tetracycline/doxycycline-responsive promoter was kindly provided by Dr. Carmen Bedia and Prof. Thierry Levade[17]. The antibiotic selection of this cell line was performed with blasticidin (3 µg/mL) and hygromycin B (250 µg/mL). Ectopic expression of AC was induced with doxycycline at 1 µg/mL for 24 h before use. Cells were suspended in the appropriate volume of a 0.25 M saccharose solution with the proteases inhibitors aprotinin (1 mg/mL), leupeptin (1 mg/mmL) and PMSF (100 mM). The suspension was submitted to three cycles of a 5 s sonication (probe) at 10 watts/5 s resting on ice. The cell lysate was centrifuged at 600 g for 5 min. The supernatant was collected and protein concentration was determined with BSA as a standard using the bicinchoninic acid (BCA) protein determination kit (Thermo Scientific) according to the manufacturer’s instructions.
A previously described 96-well plate assay[25] was miniaturised into a 384-well plate format with a final reaction volume of 32 µL. Plated compounds were diluted with a mixture of DMSO/H2O (1.6 µL/18 µL), and after centrifugation, 3.2 µL were dispensed into a new 384-well plate, so that the final concentration of the compound in the final reaction volume of 32 µL was 20 µM and the DMSO content of the assay was 1%. Next, 20.8 µL of a substrate solution of RBM14-C12 in sodium acetate buffer (25 mM, pH 4.5) was added for a final concentration of 20 µM, followed by the addition of 8 µL of a 0.25 M sucrose solution of cell lysates from AC-overexpressing A375 melanoma cells containing 0.4 µg of protein The reaction was terminated after 60 min incubation at 37 °C by adding 8 µL of methanol. Oxidation was performed by treatment with 32 µL of a [2.5 mg/mL] solution of NaIO4 in 100 mM glycine-NaOH buffer (pH 10.6). […]

[2] = biological target: T3, acid ceramidase in AC overexpressing A375 cells (Homo sapiens, UniProt Q13510); assay: Fluorogenic ceramidase activity assay in intact cells (RBM14-C12); assay type: cell-based; conditions: for inhibition at 20 µM: A-375, single-point concentration of 20 µM, 3 h, triplicate
T3 construct: expressed in transfected cells
T3 sequence (Q13510 22-395): T2 sequence (Q13510 22-395)
Method: Cell-based assays allow evaluating biological activity in a more physiologically relevant system that also considers additional factors that might have a positive impact on inhibitory potency such as permeabilization through cellular membranes, metabolisation or concentration by intracellular compartmentalisation. Thus, the activity of the nine selected hits was next examined in intact cells using AC overexpressing A375 cells and the fluorogenic substrate RBM14-C12. First, compounds were tested in a primary screening assay. Measurements were performed in triplicated at a single-point concentration of 20 µM.
as §1
To determine activity in intact cells, 2 × 10^4 cells/well were seeded in 96-well plates 24 h prior to the assay and maintained at 37 °C and 5% CO2. Overexpression of AC was induced with doxycycline at 1 µg/mL for 24 h. […] After incubation at 37 °C for 1 h in the dark, 100 µL/well of 100 mM glycine-NaOH buffer (pH 10.6) were added and fluorescence was measured spectrophotometrically at excitation and emission wavelengths of 355 and 460 nm, respectively. […]

T1 sequence (Q9NR71 whole entry): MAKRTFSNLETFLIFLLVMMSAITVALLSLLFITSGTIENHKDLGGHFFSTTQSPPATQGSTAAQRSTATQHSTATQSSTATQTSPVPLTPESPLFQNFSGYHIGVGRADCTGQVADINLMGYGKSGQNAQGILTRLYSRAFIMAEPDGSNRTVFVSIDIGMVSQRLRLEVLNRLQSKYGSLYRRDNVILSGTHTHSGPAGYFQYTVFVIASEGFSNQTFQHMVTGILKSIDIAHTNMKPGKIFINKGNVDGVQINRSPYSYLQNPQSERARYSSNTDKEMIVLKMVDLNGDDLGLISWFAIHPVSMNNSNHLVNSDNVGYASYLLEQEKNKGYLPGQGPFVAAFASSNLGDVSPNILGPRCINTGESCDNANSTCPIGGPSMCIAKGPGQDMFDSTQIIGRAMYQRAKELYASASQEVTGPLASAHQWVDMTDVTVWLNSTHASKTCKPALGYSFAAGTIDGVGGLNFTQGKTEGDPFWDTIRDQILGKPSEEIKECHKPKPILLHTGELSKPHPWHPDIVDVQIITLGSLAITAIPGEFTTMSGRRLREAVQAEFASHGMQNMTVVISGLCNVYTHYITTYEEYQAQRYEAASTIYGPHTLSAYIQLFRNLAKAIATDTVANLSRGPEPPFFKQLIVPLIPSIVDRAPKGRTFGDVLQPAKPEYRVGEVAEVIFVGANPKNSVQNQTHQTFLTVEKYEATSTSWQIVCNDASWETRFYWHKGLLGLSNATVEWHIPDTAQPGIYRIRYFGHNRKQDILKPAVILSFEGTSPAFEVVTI

Row | SMILES | inhibition at 50 µM [1] | IC50 (acid ceramidase (AC)) | inhibition at 20 µM (acid ceramidase (AC)) | inhibition at 20 µM [2] | IC50 ([2]; interval (24.3–44.7) printed, read-out: IC50 in the cell-based assay)
1 | CN(CCc1ccccn1)S(=O)(=O)c1cccc(Br)c1 [W000113402_C12] | -5.9% | 10.6 µM | 75.5% | 53% | 32 µM
2 | CC1CCCCN1C(=O)Nc1ccc(Oc2ccccc2)cc1 (centres unmarked) [W000113402_O07] | 8.5% | 7.9 µM | 53.8% | – | –
3 | Cc1ccc(CN2CC(C(=O)N(C)Cc3ccc(Cl)c(Cl)c3)CC2=O)cc1 (centres unmarked) [W000113407_J11] | 20.8% | 23.9 µM | 59.2% | – | –
4 | Cc1cc(O[C@H](c2ccc(C(=O)NC[C@H](O)C(=O)O)s2)C(C)C)cc(C)c1-c1ccc(C(F)(F)F)cc1 [W000113414_H19] | -8.9% | 11.1 µM | 61.4% | 32% | –
5 | CCC(CC)(c1ccc(OCC2(C(C)(C)C)OCCO2)c(C)c1)c1cc(C)c2oc(C(=O)NCC(=O)O)cc2c1 [W000113414_I13] | 22.9% | – | 67.4% | – | –

The remaining lines, values ahead:

Row | inhibition at 50 µM [1] | IC50 (acid ceramidase (AC)) | inhibition at 20 µM (acid ceramidase (AC)) | inhibition at 20 µM [2] | IC50 ([2]; interval (24.3–44.7) printed, read-out: IC50 in the cell-based assay) | SMILES
6 | 35.6% | 15.8 µM | 41.7% | – | – | CC(OC(=O)c1c2c(nc3ccccc13)/C(=C/c1cccs1)CC(C(C)(C)C)C2)C(=O)Nc1ccc(C(N)=O)cc1 (centres unmarked) [W000113400_H06]
7 | 23.4% | 10.6 µM | 63.4% | – | – | C=CCNC(=S)Nc1ccc(Cl)c([N+](=O)[O-])c1 [W000113403_I18]
8 | -4.1% | 48.9 µM | 59% | – | – | CC(C)(C)CC(=O)N1CCN(c2cccc(C(F)(F)F)c2)CC1 [W000113414_C16]
9 | -1.3% | 36.7 µM | 60.4% | – | – | CCCCc1ccc(C(=O)CCC2C(=O)c3ccccc3C2=O)cc1 [W000113414_D15]

From paper PMC9762759, “High-throughput discovery of novel small-molecule inhibitors of acid Ceramidase” (Journal of Enzyme Inhibition and Medicinal Chemistry, 2022)
